Results published in ChEMBL document CHEMBL1127196, “The use of synthetic peptide combinatorial libraries for the determination of peptide ligands in radio-receptor assays: Opioid peptides” (Bioorg Med Chem Lett, 1993).

Target: Mu-type opioid receptor (Rattus norvegicus, UniProt P33535)
Test: Concentration required for 50% inhibition of [3H]DAGO binding to mu opioid receptor in crude rat brain homogenates
Assay type: tissue-based

Mu-type opioid receptor, sequence (P33535 whole entry): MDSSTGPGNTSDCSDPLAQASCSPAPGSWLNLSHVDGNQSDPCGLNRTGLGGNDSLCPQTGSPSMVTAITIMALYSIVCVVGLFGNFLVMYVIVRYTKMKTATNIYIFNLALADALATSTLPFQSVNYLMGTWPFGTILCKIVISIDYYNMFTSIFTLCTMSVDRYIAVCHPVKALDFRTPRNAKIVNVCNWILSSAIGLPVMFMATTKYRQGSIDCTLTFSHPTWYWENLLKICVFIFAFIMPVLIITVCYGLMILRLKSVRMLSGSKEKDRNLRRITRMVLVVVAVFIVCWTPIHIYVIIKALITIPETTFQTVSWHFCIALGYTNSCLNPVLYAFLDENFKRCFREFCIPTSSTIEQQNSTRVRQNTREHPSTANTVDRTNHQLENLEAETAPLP

Point of comparison: H-YGGFMN-NH2, IC50 28 nM. Against it:
- H-YGGFLH-NH2 — 5-fold higher, 141 nM
- H-YGGFMH-NH2 — within 1.5-fold, 37 nM
- H-YGGFLR-NH2 — 5.6-fold higher, 158 nM
- H-YGGFMR-NH2 — 1.6-fold higher, 46 nM
- CSCC[C@H](NC(=O)[C@H](Cc1ccccc1)NC(O)CNC(=O)CNC(=O)[C@@H](N)Cc1ccc(O)cc1)C(N)=O (some centres not stated) — within 1.5-fold, 34 nM
- H-YGGFLY-NH2 — 2.8-fold higher, 77 nM
- H-YGGFLP-NH2 — 3.9-fold higher, 108 nM
- H-YGGFLV-NH2 — 6.8-fold higher, 189 nM
- H-YGGFMA-NH2 — the same, 28 nM
- H-YGGFLA-NH2 — 2.1-fold higher, 60 nM
- H-YGGFLM-NH2 — 4-fold higher, 112 nM
- H-YGGFLD-NH2 — 7.6-fold higher, 214 nM
- H-YGGFLK-NH2 — 7.2-fold higher, 201 nM
- H-YGGFME-NH2 — 7.3-fold higher, 204 nM
- H-YGGFMY-NH2 — within 1.5-fold, 39 nM
- CSCC[C@H](NC(=O)[C@H](Cc1ccccc1)N(N)C(=O)CNC(=O)CN(N)C(=O)[C@H](Cc1ccc(ON)cc1)NN)C(=O)N[C@H](C(N)=O)C(C)C — 3.8-fold higher, 107 nM
- H-YGGFMF-NH2 — 8-fold higher, 223 nM
- H-YGGFMM-NH2 — within 1.5-fold, 30 nM
- H-YGGFLF-NH2 — 14-fold higher, 381 nM
- H-YGGFMK-NH2 — within 1.5-fold, 41 nM
- H-YGGFLL-NH2 — 3.5-fold higher, 98 nM
- H-YGGFMI-NH2 — 2.9-fold higher, 80 nM
- H-YGGFMG-NH2 — within 1.5-fold, 35 nM
- H-YGGFLQ-NH2 — 2.7-fold higher, 75 nM
- H-YGGFLS-NH2 — 2.3-fold higher, 65 nM
- H-YGGFMQ-NH2 — within 1.5-fold, 40 nM
- H-YGGFLI-NH2 — 6-fold higher, 168 nM
- H-YGGFMS-NH2 — within 1.5-fold, 34 nM
- H-YGGFLT-NH2 — 2.3-fold higher, 65 nM
- H-YGGFML-NH2 — within 1.5-fold, 35 nM
- H-YGGFLG-NH2 — 2.1-fold higher, 59 nM
- H-YGGFMD-NH2 — 6-fold higher, 167 nM
- H-YGGFMP-NH2 — 2-fold higher, 57 nM
- H-YGGFLN-NH2 — 2.8-fold higher, 78 nM
- H-YGGFLE-NH2 — 11-fold higher, 315 nM
- H-YGGFMT-NH2 — within 1.5-fold, 41 nM
